Here are results for five compounds from patent publication US5326868A, “Certain aryl fused pyrrolopyrimidines; a new class of GABA brain receptor ligands” (Neurogen Corporation, priority 1993, dated 1994).

In one experiment the target is GABAa receptor. The experiment can be described thus: GABAa receptor activity: displacement of 3H-RO15-1788 (3H-Flumazenil) binding in rat cortical tissue homogenate. The following applies: 3H-RO15-1788 0.5 nM, 30 min at 4° C., pH 7.4, rat cortical tissue. The protocol: The pharmaceutical utility of compounds of this invention are indicated by the following assay for GABAa receptor activity.
Assays are carried out as described in Thomas and Tallman (J. Bio. Chem. 156: 9838-9842, J. Neurosci. 3: 433-440, 1983). Rat cortical tissue is dissected and homogenized in 25 volumes (w/v) of 0.05M Tris HCl buffer (pH 7.4 at 4° C.). The tissue homogenate is centrifuged in the cold (4°) at 20,000×g for 20'. The supernatant is decanted and the pellet is rehomogenized in the same volume of buffer and again centrifuged at 20,000×g. The supernatant is decanted and the pellet is frozen at -20° C. overnight. The pellet is then thawed and rehomogenized in 25 volume (original wt/vol) of buffer and the procedure is carried out twice. The pellet is finally resuspended in 50 volumes (w/vol of 0.05M Tris HCl buffer (pH 7.4 at […]).
Incubations contain […] of radioligand 0.5 nM (^3 H-RO15-1788 [^3 H-Flumazenil] specific activity 80 Ci/mmol), drug or blocker and buffer to a total volume of […]. Incubations are carried for 30 min at 4° C. then are rapidly filtered through GFB filters to separate free and bound ligand. Filters are washed twice with fresh 0.05M Tris HCl buffer (pH 7.4° at 4° C.) and counted in a liquid scintillation counter. […] diazepam is added to some tubes to determine nonspecific binding. Data are collected in triplicate determinations, averaged and % inhibition of total specific binding is calculated. Total Specific Binding=Total - Nonspecific. In some cases, the amounts of unlabeled drugs is varied and total displacement curves of binding are carried out. Data are converted to a form for the calculation of IC50 and Hill Coefficient (nH).

The test system of a further experiment is GABA receptor. The following applies: Tallman et al., 1978; cited from earlier work.

Structures are written as SMILES. pIC50: −log10 of the molar value.

The compound `c1ccc(-c2ncc3[nH]c4ccccc4c3n2)cc1` [Compound 4, 2-Phenyl-5H-indolo[3,2-d]pyrimidine] had a negative-log IC50 (pIC50) on GABAa receptor of 7.70.
Turning to `CN1CCc2cc3c(cc2[C@H]1[C@@H]1OC(=O)c2c1ccc1c2OCO1)OCO3` [(+) bicuculline], the “blocking of enhancement of benzodiazepine binding by GABA agonists” value in the experiment on GABA receptor is “blocked”.
As for `COc1ccc(-c2ncc3[nH]c4ccccc4c3n2)c(F)c1` [Compound 1, 2-(2-Fluoro-4-methoxyphenyl)-5H-indolo[3,2-d]pyrimidine], the pIC50 on GABAa receptor was 8.60.
At GABAa receptor, `Oc1nc(-c2ccccc2)nc2c1[nH]c1ccccc12` [Compound 2, 4-Hydroxy-2-phenyl-5H-indolo[3,2-d]pyrimidine] had a pIC50 of 7.00.
With `CN1CCc2cc3c(cc2[C@@H]1[C@H]1OC(=O)c2c1ccc1c2OCO1)OCO3` [(-) bicuculline], the “blocking of enhancement of benzodiazepine binding by GABA agonists” value with GABA receptor is given as “much less active”.
